pEC50: −log10 of the molar value. Where a SMILES comes first, the peptide text is derived from it. Bridges are numbered along the chain shown (N, C = ends). [ ]: non-standard residue; d: D form. The star is where a group is joined. Bta = N[C@@H](Cc1csc2ccccc12)C(=O)O; Tle = CC(C)(C)[C@H](N)C(=O)O; hCys = N[C@@H](CCS)C(=O)O; Hexanoyl = CCCCCC(=O)*; Aib = CC(C)(N)C(=O)O; Acm = CC(=O)NC*; Sar = CNCC(=O)O

One data set in a line: in vitro. The conditions noted are these: human, plasma.
For data set [1] the following is noted: mouse, plasma, 24 h.
Data set [2] concerns TFPI. Kind of data set: % Inhibition @ 2.5µM.
In data set [3] the test system is TFPI. Kind of data set: % Inhibition @ 0.63µM.
Data set [4] has as its system TFPI. Kind of data set: % Inhibition @ 2.5µM. This is another data set of the same source.
In data set [5] the test system is TFPI. Kind of data set: FXa Inhibition assay | EC50 (µM).
In data set [6] the test system is TFPI. Description: % Inhibition @ 0.63µM. The source holds these as a separate data set.
In data set [7] the test system is TFPI. Description: Progress Curves of Inhibition of FXa | % Inhibit (2.5μM). On the procedure: Head of the field: Progress Curves of Inhibition of FXa | % Inhibit (2.5μM)
Data set [8] deals with TFPI. Kind of data set: Extrinsic Tenase Inhibition assay | % Inhibition @ 2.5μM.

Take `CC(=O)N[C@@H](Cc1ccccc1)C(=O)N[C@@H](CCC(N)=O)C(=O)N[C@@H](CO)C(=O)N[C@@H](CCCCN)C(=O)N1CCC[C@@H]1C(=O)N[C@@H](CC(N)=O)C(=O)N[C@H](C(=O)N[C@@H](Cc1c[nH]cn1)C(=O)N[C@H](C(=O)N[C@@H](CC(=O)O)C(=O)N[C@H](C)C(=O)N[C@@H](Cc1ccc(O)cc1)C(=O)N[C@@H](Cc1ccccc1)C(=O)N[C@@H](CCC(=O)O)C(=O)N[C@@H](CCCNC(=N)N)C(=O)N[C@@H](CC(C)C)C(=O)NC(C)(C)C(=O)N[C@@H](C)C(=O)N[C@@H](CCCCN)C(=O)N[C@@H](CC(C)C)C(N)=O)C(C)C)C(C)C` [JBT2414] (Ac-FQSK[dP]NVHVD[dA]YFERL[Aib]AKL-NH2): in “in vitro”, the amount remaining (usually the share of the starting amount still present when the sample was taken) at 24 h amounted to 100%.
Consider `CC(=O)N[C@@H](Cc1ccccc1)C(=O)N[C@@H](CCC(N)=O)C(=O)N[C@@H](CO)C(=O)N[C@@H](CCCCN)C(=O)N1CCC[C@@H]1C(=O)N[C@@H](CC(N)=O)C(=O)N[C@H](C(=O)N[C@@H](Cc1c[nH]cn1)C(=O)N[C@H](C(=O)N1CCC[C@H]1C(=O)N[C@@H]1CSSCC[C@@H](C(=O)N[C@@H](CCCNC(=N)N)C(=O)N[C@@H](CC(C)C)C(=O)NC(C)(C)C(=O)N[C@@H](C)C(=O)N[C@@H](CCCCN)C(=O)N[C@@H](CC(C)C)C(N)=O)NC(=O)[C@H](Cc2csc3ccccc23)NC(=O)[C@H](Cc2ccc(O)cc2)NC1=O)C(C)C)C(C)C` [JBT00002518, Ac-FQSKpNVHVP[cY-Bta--Hcy-]RL-Aib-AKL-NH2] (Ac-FQSK[dP]NVHVP[dC]Y[Bta][hCys]RL[Aib]AKL-NH2; disulfide 11-14), for which, in “FIGURE 78X”, the “24 h Human Plasma Stability | Mean Remaining [%]” value was 77.70% and the “24 h Mouse Plasma Stability | Mean Remaining [%]” value was determined as 28.30%.
On to `CCCCCC(=O)N[C@@H](Cc1ccccc1)C(=O)N[C@@H](CCC(N)=O)C(=O)N[C@@H](CO)C(=O)N[C@@H](CCCCN)C(=O)N1CCC[C@@H]1C(=O)N[C@@H](CSCNC(C)=O)C(=O)N[C@H](C(=O)N[C@@H](Cc1cnc[nH]1)C(=O)N[C@H](C(=O)N[C@@H](CC(=O)O)C(=O)N[C@H](C)C(=O)N[C@@H](Cc1ccc(O)cc1)C(=O)N[C@@H](Cc1ccccc1)C(=O)N[C@@H](CCC(=O)O)C(=O)N[C@@H](CCCNC(=N)N)C(=O)N[C@@H](CC(C)C)C(=O)NC(C)(C)C(=O)N[C@@H](C)C(=O)N[C@@H](CCCCN)C(=O)N[C@@H](CC(C)C)C(N)=O)C(C)(C)C)C(C)C` [JBT2528, Hex-FQSKp-C(Acm)-VH-Tle-DaYFERL-Aib-AKL-NH2] (Hexanoyl-FQSK[dP]C(Acm)VH[Tle]D[dA]YFERL[Aib]AKL-NH2), for which the “percentage of initial amount of peptide remaining” value in data set [1] worked out at 35%. In addition, in the data set “in vitro”, the share remaining at 24 h worked out at 93%.
On to “(Ac-FQSKpNVHVDGYFERL-Aib-AKLC-NH2)2-M2TriO [JBT00002522]”, for which, in “FIGURE 78X”, the “24 h Human Plasma Stability | Mean Remaining [%]” value amounted to 46.90% and the “24 h Mouse Plasma Stability | Mean Remaining [%]” value came out at 18.05%.
As to “Ac-FQSK-Nmg-AVFVFGYFARLRAKL-NH2 (SEQ ID NO: 206) (Ac-FQSK[Sar]AVFVFGYFARLRAKL-NH2; SMILES CC(=O)N[C@@H](Cc1ccccc1)C(=O)N[C@@H](CCC(N)=O)C(=O)N[C@@H](CO)C(=O)N[C@@H](CCCCN)C(=O)N(C)CC(=O)N[C@@H](C)C(=O)N[C@H](C(=O)N[C@@H](Cc1ccccc1)C(=O)N[C@H](C(=O)N[C@@H](Cc1ccccc1)C(=O)NCC(=O)N[C@@H](Cc1ccc(O)cc1)C(=O)N[C@@H](Cc1ccccc1)C(=O)N[C@@H](C)C(=O)N[C@@H](CCCNC(=N)N)C(=O)N[C@@H](CC(C)C)C(=O)N[C@@H](CCCNC(=N)N)C(=O)N[C@@H](C)C(=O)N[C@@H](CCCCN)C(=O)N[C@@H](CC(C)C)C(N)=O)C(C)C)C(C)C) [JBT0681]”, the “% Inhibition @ […]” value with TFPI [2] and in the data set with TFPI [3] was 52% throughout.
With “Ac-FQSKDNVFVTGYFERLRAKL-NH2 (SEQ ID NO: 33) [JBT0478]”, the “% Inhibition @ […]” value is 39% with TFPI [4] and 21% in the data set on TFPI [6]. Besides, the pEC50 (commonly the negative decadic logarithm of the EC50, by convention in mol/L) in the data set with TFPI [5] was 6.12.
For the compound “Ac-FQSKGNVFLFGYFERLRAKL-NH2 (SEQ ID NO: 694) [JBT0658]”, in the data set on TFPI [2], the “% Inhibition @ […]” value amounted to 6%.
In the case of “Ac-FQSKGNVFVDGYFDRLRAKL-NH2 (SEQ ID NO: 31) [JBT0476]”, the “% Inhibition @ […]” value with TFPI [4] worked out at 49%; with TFPI [6] it was 38%. The same compound gave a pEC50 in the data set on TFPI [5] of 6.66.
The like results for “Ac-FQSKGNVFVEGYFERLRAKL-NH2 (SEQ ID NO: 30) [JBT0475]” were, in that order, 50%, 37% and 6.60.
The like results for “Ac-FQSKGNVFVHGYFERLRAKL-NH2 (SEQ ID NO: 28) [JBT0473]” were, in that order, 45%, 31% and 6.60.
The like results for “Ac-FQSKGNVFVNGYFERLRAKL-NH2 (SEQ ID NO: 27) [JBT0472]” were, in that order, 49%, 34% and 6.43.
As to “Ac-KKQLHVSKRSKEMALARLYYKTKK-NH2 (SEQ ID NO: 2306) [JBT0235]”, in the data set with TFPI [7], the “Progress Curves of Inhibition of FXa | % Inhibit ([…])” value is listed as 0%.
Consider “Ac-KKVQLHVSKRSKEMALARLYYKTSKK- NH2 (SEQ ID NO: 2301) (Ac-KKVQLHVSKRSKEMALARLYYKTSKK-NH2) [JBT0230]”, for which the “Progress Curves of Inhibition of FXa | % Inhibit ([…])” value in the data set on TFPI [7] is given as 0%.
Take “Ac-KKYASFPLAVQLHVSKRSKEMAKK-NH2 [JBT0233]”: the “Progress Curves of Inhibition of FXa | % Inhibit ([…])” value with TFPI [7] turned out to be 6%.
With “Ac-KRYKWF[CGMRDMKGTMSC]VWVKF-NH2 (SEQ ID NO: 1016) (Ac-KRYKWFCGMRDMKGTMSCVWVKF-NH2; disulfide 7-18; SMILES CSCC[C@@H]1NC(=O)CNC(=O)[C@@H](NC(=O)[C@H](Cc2ccccc2)NC(=O)[C@H](Cc2c[nH]c3ccccc23)NC(=O)[C@H](CCCCN)NC(=O)[C@H](Cc2ccc(O)cc2)NC(=O)[C@H](CCCNC(=N)N)NC(=O)[C@H](CCCCN)NC(C)=O)CSSC[C@@H](C(=O)N[C@H](C(=O)N[C@@H](Cc2c[nH]c3ccccc23)C(=O)N[C@H](C(=O)N[C@@H](CCCCN)C(=O)N[C@@H](Cc2ccccc2)C(N)=O)C(C)C)C(C)C)NC(=O)[C@H](CO)NC(=O)[C@H](CCSC)NC(=O)[C@H]([C@@H](C)O)NC(=O)CNC(=O)[C@H](CCCCN)NC(=O)[C@H](CCSC)NC(=O)[C@H](CC(=O)O)NC(=O)[C@H](CCCNC(=N)N)NC1=O) [JBT1474]”, the “Extrinsic Tenase Inhibition assay | % Inhibition @ […]” value in the data set on TFPI [8] amounted to 59%.
On the same count and under the same terms, as for “Ac-SFYKWF[CGMRDMKGTMSC]VWVKF-NH2 (SEQ ID NO:1010) [JBT1437]”, the figure is 53%; as for “Ac-SRYKWF[CGMKDMKGTMSC]VWVKF-NH2 (SEQ ID NO: 1017) (Ac-SRYKWFCGMKDMKGTMSCVWVKF-NH2; disulfide 7-18; SMILES CSCC[C@@H]1NC(=O)CNC(=O)[C@@H](NC(=O)[C@H](Cc2ccccc2)NC(=O)[C@H](Cc2c[nH]c3ccccc23)NC(=O)[C@H](CCCCN)NC(=O)[C@H](Cc2ccc(O)cc2)NC(=O)[C@H](CCCNC(=N)N)NC(=O)[C@H](CO)NC(C)=O)CSSC[C@@H](C(=O)N[C@H](C(=O)N[C@@H](Cc2c[nH]c3ccccc23)C(=O)N[C@H](C(=O)N[C@@H](CCCCN)C(=O)N[C@@H](Cc2ccccc2)C(N)=O)C(C)C)C(C)C)NC(=O)[C@H](CO)NC(=O)[C@H](CCSC)NC(=O)[C@H]([C@@H](C)O)NC(=O)CNC(=O)[C@H](CCCCN)NC(=O)[C@H](CCSC)NC(=O)[C@H](CC(=O)O)NC(=O)[C@H](CCCCN)NC1=O) [JBT1481]”, 55%.
The same measure, in the same setting: as for “Ac-SRYKWF[CGMRDMKGTLSC]VWVKF-NH2 (SEQ ID NO:1064) [JBT1506]”, the figure is 45%.
